Earlier results as cited in patent US20260263382A1, “TRANSDERMAL PATCH COMPRISING RASAGILINE MESYLATE AND PREPARATION METHOD THEREFOR” (priority 2023, published 2026).
Counter-ions that a name gives are not always drawn. Like-named read-outs stand apart in the source and are kept apart here.

Key:
[1] = oral administration at 20 mg/d for 2 weeks
[2] = oral preparations
[3] = carried in polyacrylate or silicone pressure-sensitive adhesives or polyvinyl alcohol, free base under weakly alkaline conditions

Bioavailability [2] [%]	Main drug content [3]	Compound	Adverse reaction [1]	Main drug content ([3]; listed as rasagiline free base)
36		C#CCN[C@@H]1CCc2ccccc21 [Rasagiline]	no serious adverse reaction	declines rapidly, even with complete degradation
	no change	C#CCN[C@@H]1CCc2ccccc21 [rasagiline mesylate]		
